Assay results published in patent US20260109672A1, “SARS-COV-2 MPRO INHIBITORS AND USES THEREOF” (NXERA PHARMA UK LIMITED, priority 2022, published 2026).

What follows are substances tested against SARS-CoV-2 Mpro (Severe acute respiratory syndrome coronavirus 2, UniProt P0DTD1) (assay: Modified SARS-CoV-2 Mpro enzyme assay (FRET, kinetic read) for reference examples). Settings: 5 nM Mpro, 20 min preincubation at room temperature, mean n=2, set out in PCT/GB2022/050836.
Assay type: biochemical
With “(1R,2S,5S)-N-(4-(cyclopropylamino)-3,4-dioxo-1-((S)-2-oxopyrrolidin-3-yl)butan-2-yl)-3-((E)-3-(2,4-difluorophenyl)acryloyl)-6,6-dimethyl-3-azabicyclo[3.1.0]hexane-2-carboxamide [Example 7]” the “SARS-CoV-2 Mpro enzyme pKi assay pKi” value was 6.7.
“(1R,2S,5S)-N-(4-(cyclopropylamino)-3,4-dioxo-1-((S)-2-oxopyrrolidin-3-yl)butan-2-yl)-3-((S)-3,3-dimethyl-2-(2,2,2-trifluoroacetamido)butanoyl)-6,6-dimethyl-3-azabicyclo[3.1.0]hexane-2-carboxamide [Example 1]” was tested, and the “SARS-CoV-2 Mpro enzyme pKi assay pKi” value was 7.8.
With “(1R,2S,5S)-N-[1-(cyclopropylmethyl)-3-(methylamino)-2,3-dioxo-propyl]-3-[(2S)-3,3-dimethyl-2-[(2,2,2-trifluoroacetyl)amino]butanoyl]-6,6-dimethyl-3-azabicyclo[3.1.0]hexane-2-carboxamide [Example 2]” the “SARS-CoV-2 Mpro enzyme pKi assay pKi” value was 7.3.
With “(1R,2S,5S)-N-[3-(cyclopropylamino)-2,3-dioxo-1-[(3S)-2-oxopyrrolidin-3-yl]methyl]propyl]-3-[(2S)-3,3-dimethyl-2-(2-methylpropanoylamino)butanoyl]-6,6-dimethyl-3-azabicyclo[3.1.0]hexane-2-carboxamide [Example 5]” the “SARS-CoV-2 Mpro enzyme pKi assay pKi” value was 6.8.
“(1R,2S,5S)-N-[3-(cyclopropylamino)-2,3-dioxo-1-[[(3R)-2-oxo-3-piperidyl]methyl]propyl]-3-[(2S)-3,3-dimethyl-2-[(2,2,2-trifluoroacetyl)amino]butanoyl]-6,6-dimethyl-3-azabicyclo[3.1.0]hexane-2-carboxamide [Example 6]” was tested, and the “SARS-CoV-2 Mpro enzyme pKi assay pKi” value was 6.7.
With “(1R,2S,5S)-N-[3-amino-1-(cyclobutylmethyl)-2,3-dioxo-propyl]-3-[(2S)-3,3-dimethyl-2-[(2,2,2-trifluoroacetyl)amino]butanoyl]-6,6-dimethyl-3-azabicyclo[3.1.0]hexane-2-carboxamide [Example 4]” the “SARS-CoV-2 Mpro enzyme pKi assay pKi” value was 7.3.
In the case of “(1R,2S,5S)-N-[3-amino-1-(cyclopropylmethyl)-2,3-dioxo-propyl]-6,6-dimethyl-3-[(2S)-3-methyl-2-[(2,2,2-trifluoroacetyl)amino]butanoyl]-3-azabicyclo[3.1.0]hexane-2-carboxamide [Example 3]”, the “SARS-CoV-2 Mpro enzyme pKi assay pKi” value is reported as 7.1.
